Source: patent US5665330A, “Dual purposed diagnostic/therapeutic agent having a tri-iodinated benzoyl group linked to a coumarin” (Nano Systems LLC, priority 1995, dated 1997)
Like-named read-outs stand apart in the source and are kept apart here. Each block holds one compound with its values, some of them ahead of it.

Experiments:
water solubility = assay type: physicochemical
Method: Despite the high water solubility of sodium ditriazoate and sodium methoxy coumarin (>1 mg/ml), WIN 67638 and WIN 67591 are sparingly soluble in water with solubility less than 0.01 mg/mL.
By water soluble is meant greater than 1 mg/ml.

[1] = average particle size of roller-milled nanoparticle suspension (light scattering / PCS); assay type: physicochemical
Method: (§1) 0.75 g of WIN 67591, as prepared in Example 1, was added to approximately 30 ml of 1.1 mm zirconium oxide beads and 10 ml of a solution which was 2% Tetronic 908 (wt/vol %) and 1% SA9OHCO (wt/vol %). SA9OHCO is a small sugar surfactant. The suspension was roller milled in a 60 ml jar at approximately 100 rpm for 7 days. At the end of this time, the average particle size was determined to be 192 nm by light scattering using a Zetasizer III. The suspension was removed from the beads and sent for subcutaneous injection as a lymphographic agent. CT imaging was carried out using a GE Model 9800 Instrument.
(§2) 2.85 g of WIN 67591 (19.2%) were added to 30 ml of a solution of 5.2% BASF NF Grade Tetronic 908 (wt/vol %) in sterilized distilled water and approximately 100 ml of 1.1 mm zirconium silicate beads in a 250 ml bottle. The bottle was capped and rolled at approximately 140 rpm for 7 days at which time the average particle size was determined to be 173 nm. The suspension was separated from the beads and sent for intravenous injection as a vascular x-ray contrast agent. New Zealand White rabbits were used for this study and were injected via the ear vein at a dose of 3 ml/kg. Three animals were studied for times 5, 15, 30, 60, 120 min. and 24 hours. CT scanning was carried out using a Toshiba Model TCT-900S/x at the times indicated.
(§3) […] as prepared in Example 1 at 5% W/V was formulated with 3% Tyloxapol by roller milling for ten days following the procedures similar to that of work example 3 and 4. The average particle size by PCS was 302 nm. The formulation was administered i.v. to colon 33 bearing mice at 0.2 ml/animal. […] As high as 700 ug (0.7% of the total dosage) WIN 67591 remained circulating in the blood 1 hour post injection. WIN 67591 was detected in the tumor tissue as early as 5 minute post injection. The drug concentration reached a maximum at 90 ug/g of tumor tissue at 6 hour post injection and maintained at a concentration of 60 ug/g in the tumor tissue for 48 hours.

axillary nodes = experiment: lymphography, CT imaging of axillary nodes after subcutaneous injection; assay type: in vivo, New Zealand White Rabbits; conditions: 4 hours post injection, single 0.5 ml subcutaneous dose, dorsal side of forepaw
Method: as §1

[2] = blood pool imaging, vascular x-ray contrast by CT after intravenous injection; assay type: in vivo, New Zealand White rabbits; conditions: 3 ml/kg via ear vein, CT at 5, 15, 30, 60, 120 min and 24 hours
Method: as §2

[3] = tumor tissue concentration after iv injection in mice bearing colon 33 tumor; assay type: in vivo; conditions: mouse, colon 33 tumor tissue, iv; for Cmax at 6 h: read-out: maximum drug concentration in tumor tissue; for Tmax: read-out: time of maximum drug concentration in tumor tissue
Method: (§4) A nanoparticulate formulation of 5% w/v […] in 3% polyoctylphenol (Tyloxopol) was prepared by ten days roller milling following the procedures similar to that of Example 9.
(§5) The formulation was administered to mice bearing colon 33 tumor by iv injection. Analysis of the tumor tissue indicated the presence of WIN 67591 in the tumor tissue as soon as 5 minutes after injection. The drug concentration reached a maximum of 90 μg/g of tumor tissue at 6 hours and maintained at a concentration of 60 μg/g of tumor tissue for 42 hours.
as §3

colon 33 tumor tissue = experiment: as above; assay type: in vivo
Method: as §4, §5, §3

[4] = biodistribution study, circulation in blood of colon 33 tumor bearing mice; assay type: in vivo; conditions: Example 7, i.v. 0.2 ml/animal
Method: as §4
(§6) A biodistribution study of the treatment of Example 5 was conducted by iv injections into colon 33 tumor bearing mice at 0.2 ml/animal. […] No dead mice were reported during the 48 hours treatment.
as §3

[5] = mortality in biodistribution study in colon 33 tumor bearing mice; assay type: in vivo; conditions: iv 0.2 ml/animal; during 48 hours treatment
Method: as §4, §6

Compound: COc1cc2oc(=O)cc(COC(=O)c3c(I)c(NC(C)=O)c(I)c(NC(C)=O)c3I)c2cc1OC [WIN 67591]
solubility (water solubility; in water, conjugates, read-out: solubility in water): < 10 µg/mL | average particle size ([1]; 2% Tetronic 908 and 1% SA9OHCO, roller milled 7 days, light scattering, Zetasizer III): 192 nm | average particle size by PCS ([1]; 5% W/V with 3% Tyloxapol, roller milling ten days): 302 nm | average particle size ([1]; 5.2% Tetronic 908 in sterilized distilled water, rolled 7 days): 173 nm | enhancement of the axillary nodes (CT) (axillary nodes): clear enchancement of the axillary nodes | prolonged vascular residence time [2]: > 2 h | Cmax at 6 h ([3]; Example 7, at 6 hour post injection, i.v. 0.2 ml/animal): 90000 ng/g | concentration at 48 h ([3]; Example 7, for 48 hours, i.v. 0.2 ml/animal, read-out: concentration maintained in tumor tissue): 60000 ng/g | Tmax ([3]; Example 7, i.v. 0.2 ml/animal): 6 h | Cmax at 6 h ([3]; Example 5, at 6 hours): 90000 ng/g | concentration at 42 h ([3]; Example 5, for 42 hours, read-out: concentration maintained in tumor tissue): 60000 ng/g | Tmax ([3]; Example 5): 6 h | time for which tumor concentration of 60 μg/g was maintained (colon 33 tumor tissue; Example 5, iv): 42 h | tumor tissue concentration versus average therapeutic dosage of oncologics (colon 33 tumor tissue; Example 5, iv): exceeds the average therapeutic dosage of oncologics | time at which drug is present in tumor tissue (colon 33 tumor tissue; Example 5, iv, 5% w/v in 3% Tyloxapol): ≤ 5 min | time at which drug is detected in tumor tissue (colon 33 tumor tissue; Example 7, HPLC, i.v. 0.2 ml/animal): ≤ 5 min | time for which tumor concentration of 60 ug/g was maintained (colon 33 tumor tissue; Example 7, i.v. 0.2 ml/animal): 48 h | amount remaining circulating in the blood ([4]; 1 hour post injection): 700 µg | share of total dosage remaining circulating in the blood ([4]; 1 hour post injection): 0.7% | blood circulation [4]: prolonged blood circulation | dead mice [5]: No dead mice

solubility (water solubility; water): < 10 µg/mL
Compound: COc1ccc2c(COC(=O)c3c(I)c(NC(C)=O)c(I)c(NC(C)=O)c3I)cc(=O)oc2c1 [WIN 67638]

solubility (water solubility; in water, starting materials, read-out: water solubility): > 1000 µg/mL
Compound: CC(=O)Nc1c(I)c(NC(C)=O)c(I)c(C(=O)O)c1I [sodium ditriazoate, sodium diatrizoate, reference compound]

water solubility (water solubility; water): > 1000 µg/mL
Compound: sodium methoxy coumarin
